The test system of data set [1] is patients with COPD. In words: Pharmacodynamic and safety assessments (ECG, vital signs, serum potassium, adverse events, laboratory), Example 1. In kind it is in vivo, human. How it is done:
Twelve-lead electrocardiograms (ECGs) were conducted after the subject had been resting and supine for ≧3 minutes. In addition to screening and pre-treatment baseline (Day 0) measurements, ECGs were also recorded at specific times during the treatment period. All 12-lead ECG monitors used for this study were calibrated and standardized. The ventricular rate, PR interval (the time elapsing between the beginning of the P wave and the beginning of the QRS interval in an electrocardiogram, corresponding to the electrical activity through the atria), QRS interval (the movement of electrical impulses through the ventricles), QT/QTc interval (the QT interval measures the time between the start of the Q wave and the end of the T wave in the heart's electrical cycle; QTc is a corrected QT interval, as determined by Fridericia's formula [QTcF] and Bazett's formula [QTcB]), and the overall ECG interpretation (normal or abnormal) were documented. Measurements were recorded prior to collection of any blood samples, where applicable. At least three original copies of each ECG (one each for the site, for the sponsor, and for the central ECG provider) were made. […]
Vital signs (heart rate and systolic blood pressure) were measured after the subject had been sitting for ≧3 minutes. […] Measurements were recorded prior to the collection of any blood samples, where applicable. […]

Data set [2] concerns lipopolysaccharide (LPS)-induced cytokine production (TNF-α, IL-1β, IL-6). The note with it: tetomilast pretreatment; human whole blood from normal volunteers in vitro; cited from earlier work.

In the case of `CCOc1ccc(-c2nc(-c3cccc(C(=O)O)n3)cs2)cc1OCC` [Tetomilast, 2-(3,4-diethoxyphenyl)-4-(2-carboxy-6-pyridyl)thiazole], the “differences in adverse events, serum chemistry, hematology, or urinalysis versus placebo” value in data set [1] (oral tetomilast with inhaled albuterol) is reported as “no clinically meaningful differences”. In addition, the “changes in heart rate, systolic blood pressure, serum potassium, or QT interval versus placebo” value in data set [1] (oral tetomilast with relatively high doses of inhaled albuterol) is on record as “No clinically meaningful changes”. Also, in data set [2], the “LPS-induced cytokine production (TNF-α, IL-1β, IL-6)” value is on record as “dose-related suppression”.

The values are drawn from patent publication US20120010179A1, “Methods of using a thiazole derivative” (priority 2006, published 2012).
